Data published in patent US9340577B2, “HLA binding motifs and peptides and their uses” (priority 1992, dated 2016).
No end group written: not given here.

Columns and labels:
Assay in all cases: biochemical
DRB1*1201 = DRB1*1201 (Homo sapiens, UniProt P01903+P01911, A100R/A169T/D57E/D86V/F55L/H45Y/K41T/L162R/M171V/P40S/Q125H/Q178H/Q39Y/Q99D/R42G/S66L/T262R/V114A/V67L/W38E/Y59H/Y61H/Y89S); format: binding
DRB1*1501 = DRB1*1501 (Homo sapiens, UniProt P01903+P01911); format: binding
DRB1*0901 = DRB1*0901 (Homo sapiens, UniProt P01903+P01911, A100R/A103E/D57H/D86V/F55Y/F60I/F76Y/I96F/K127E/L162R/M171V/P40D/Q125H/Q99R/R33Q/R42F/S133A/S66N/T210M/V115G/W38K/Y107V/Y59G/Y89S); format: binding
DRB5*0101 = DRB5*0101 (Homo sapiens, UniProt P01903+Q30154); details: Binding affinity DRB5 *0101
DRB1*1101 = DRB1*1101 (Homo sapiens, UniProt P01903+P01911, A100R/A169T/A87E/I96F/K41T/L162R/M171V/P40S/Q125H/Q178H/Q39Y/Q99D/R42S/S66Y/T262R/V115G/W38E)
Sequence of DRB1*1101 (P01903 26-254 limits assumed, other chains not shown): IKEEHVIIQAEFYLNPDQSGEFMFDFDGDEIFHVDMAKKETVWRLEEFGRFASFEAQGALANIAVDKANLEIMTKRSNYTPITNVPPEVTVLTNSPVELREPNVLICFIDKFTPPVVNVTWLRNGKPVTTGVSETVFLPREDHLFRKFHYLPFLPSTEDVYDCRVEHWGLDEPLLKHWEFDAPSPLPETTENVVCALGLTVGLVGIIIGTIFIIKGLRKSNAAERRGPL

DRB1*0802 = DRB1*0802 (Homo sapiens, UniProt P01903+P01911, A100R/A103L/A169T/F76Y/H45Y/I96F/K41T/L162R/M171V/P40S/Q125H/Q178H/Q39Y/Q99D/R218S/R42G/S66Y/V115G/W38E); format: binding
DR7 (DRB1*0701) = DR7 (DRB1*0701) (Homo sapiens, UniProt P01903+P01911, A100R/A102G/A103Q/D57E/D86V/E43K/F76Y/K127E/L162R/M171V/P40G/Q125H/Q99D/R33Q/R42Y/R54Q/S133A/S66F/T210M/V115G/Y107V/Y59L/Y89S); format: binding
DRB1*1302 = DRB1*1302 (Homo sapiens, UniProt P01903+P01911, A100E/A169T/K41T/L162R/M171V/P40S/Q125H/Q178H/Q39Y/Q99D/R42S/S66N/T262R/V115G/W38E/Y61H); format: binding
Sequence of DRB1*1302 (P01903 26-254 limits assumed, other chains not shown): as above

DRB1*0405 = DRB1*0405 (Homo sapiens, UniProt P01903+P01911, A100R/A169T/D86S/F76Y/I96L/K127E/L162R/M171V/N62H/P40V/Q125Y/R42H/S133A/S149N/S66Y/V115G/V209L/W38E); format: binding
DR1 (DRB1*0101) = DR1 (DRB1*0101) (Homo sapiens, UniProt P01903+P01911, A100R/D57E/F55L/F60I/F76Y/I96L/L162R/M171V/P40L/Q125E/R42F/V115G/Y59C); format: binding
DRB4*0101 = DRB4*0101 (Homo sapiens, UniProt P01903+P13762, G164S); format: binding
DR4w4 (DRB1*0401) = DR4w4 (DRB1*0401) (Homo sapiens, UniProt P01903+P01911, A100K/A169T/F76Y/I96L/K127E/L162R/M171V/N62H/P40V/Q125Y/R42H/S133A/S149N/S66Y/V115G/V209L/W38E); format: binding

Compound	IC50 (DRB1*1201)	IC50 (DRB1*1501)	IC50 (DRB1*0901)	IC50 (DRB5*0101)	IC50 (DRB1*1101; Binding affinity DRB1 *1101)	IC50 (DRB1*0802)	IC50 (DR7 (DRB1*0701))	IC50 (DRB1*1302)	IC50 (DRB1*0405)	IC50 (DR1 (DRB1*0101))	IC50 (DRB4*0101)	IC50 (DR4w4 (DRB1*0401))	IC50 (DRB1*1101; […])
CC[C@H](C)[C@H](NC(=O)[C@@H](NC(=O)[C@H](Cc1c[nH]cn1)NC(=O)[C@@H](N)CC(C)C)C(C)C)C(=O)N[C@@H](CO)C(=O)N[C@@H](CC(N)=O)C(=O)N[C@@H](CC(=O)O)C(=O)N[C@H](C(=O)N[C@@H](CS)C(=O)N[C@@H](C)C(=O)N[C@@H](CCC(N)=O)C(=O)N[C@H](C(=O)N[C@@H](Cc1c[nH]cn1)C(=O)N1CCC[C@H]1C(=O)N[C@@H](CCC(N)=O)C(=O)O)C(C)C)C(C)C [Peptide 68.0077]	> 20000 nM	> 20000 nM	> 20000 nM	> 20000 nM	> 20000 nM	> 20000 nM							
CC[C@H](C)[C@H](NC(=O)[C@H](CO)NC(=O)[C@H](CO)NC(=O)[C@H](CC(=O)O)NC(=O)[C@H](C)NC(=O)[C@H](CC(N)=O)NC(=O)[C@@H](NC(=O)[C@H](Cc1ccc(O)cc1)NC(=O)[C@H](C)NC(=O)[C@@H](NC(=O)CNC(=O)[C@H](CCCNC(=N)N)NC(=O)[C@@H](N)CCC(=O)O)C(C)C)[C@@H](C)CC)C(=O)N[C@@H](CCC(=O)O)C(=O)NCC(=O)O [Peptide 68.0109]	> 20000 nM	> 20000 nM	> 20000 nM		> 20000 nM	> 20000 nM	> 20000 nM						
CSCC[C@H](NC(=O)[C@H](CCC(=O)O)NC(=O)[C@H](CCC(N)=O)NC(=O)[C@@H]1CCCN1)C(=O)N[C@@H](CCCCN)C(=O)N[C@H](C(=O)N[C@@H](Cc1ccc(O)cc1)C(=O)N[C@@H](CO)C(=O)N[C@H](C(=O)N[C@@H](CO)C(=O)N[C@@H](Cc1ccccc1)C(=O)N[C@@H](CC(=O)O)C(=O)N[C@@H](CO)C(=O)N[C@@H](CC(C)C)C(=O)N[C@@H](Cc1ccccc1)C(=O)O)C(C)C)[C@@H](C)O [Peptide 68.0127]	5350 nM				> 20000 nM	> 20000 nM		> 20000 nM					
CC(C)C[C@H](NC(=O)[C@H](CCC(N)=O)NC(=O)[C@H](CC(=O)O)NC(=O)[C@H](CCC(=O)O)NC(=O)[C@H](CO)NC(=O)[C@H](CC(C)C)NC(=O)[C@@H]1CCCN1C(=O)[C@@H](NC(=O)[C@@H](N)[C@@H](C)O)C(C)C)C(=O)N[C@@H](CC(C)C)C(=O)N[C@@H](Cc1ccc(O)cc1)C(=O)N[C@@H](CC(C)C)C(=O)N1CCC[C@H]1C(=O)N[C@@H](Cc1ccccc1)C(=O)N[C@@H](CCCNC(=N)N)C(=O)O [Peptide 68.0147]	9690 nM	> 20000 nM	> 20000 nM	> 20000 nM	> 20000 nM	> 20000 nM							
CC[C@H](C)[C@H](NC(=O)[C@H](CCCCN)NC(=O)[C@H](CCSC)NC(=O)[C@H](CC(=O)O)NC(=O)[C@H](CCCNC(=N)N)NC(=O)[C@H](CCC(=O)O)NC(=O)[C@H](CC(C)C)NC(=O)[C@H](CCCCN)NC(=O)[C@H](Cc1ccccc1)NC(=O)[C@@H](N)Cc1ccccc1)C(=O)N[C@@H](CC(N)=O)C(=O)N[C@@H](CS)C(=O)N[C@@H](CO)C(=O)NCC(=O)N[C@@H](CCCCN)C(=O)O [Peptide 68.0168]	6940 nM	> 20000 nM	> 20000 nM				> 20000 nM						
CWNYIDDNLRNALDG [Peptide 90.0041]	> 20000 nM	> 20000 nM	> 20000 nM	> 20000 nM	> 20000 nM	> 20000 nM	> 20000 nM	> 20000 nM	> 20000 nM	> 20000 nM	> 20000 nM		
DPRWPYLHSRLVVFH [Peptide 89.0113]	5930 nM		5400 nM		5140 nM	19800 nM	90 nM	13 nM	6100 nM		98 nM	138 nM	
ELQMALKGLAQSKYN [Peptide 90.0005]	41 nM	> 20000 nM	348 nM	475 nM	64 nM	127 nM	> 20000 nM	10000 nM	5950 nM	81 nM		2220 nM	
ESVFSSDEISFAGIV [Peptide 90.0195]	> 20000 nM	1980 nM	672 nM	> 20000 nM	> 20000 nM	> 20000 nM	609 nM	235 nM	8580 nM	2380 nM		33 nM	
GVYYIKDGDTTYYVQ [Peptide 90.0216]	5740 nM	> 20000 nM	1620 nM	> 20000 nM	> 20000 nM	5620 nM			7090 nM	1550 nM	> 20000 nM	2480 nM	
ITFLGALKSFLKGTP [Peptide 89.0034]	44 nM	128 nM	7620 nM	19 nM			2960 nM	> 20000 nM		18 nM	1500 nM		
IWEVHMENESIYCPD [Peptide 90.0237]	> 20000 nM	> 20000 nM	5490 nM	> 20000 nM	> 20000 nM	> 20000 nM	> 20000 nM	1960 nM	> 20000 nM	1780 nM		3380 nM	
IYIIEEDTCTMVTGK [Peptide 90.0204]	16500 nM	18700 nM	> 20000 nM	> 20000 nM	11900 nM	> 20000 nM	8190 nM	994 nM	18700 nM	2230 nM		151 nM	
LNVLKTSNAKAAMLA [Peptide 89.0003]	531 nM		197 nM	768 nM	198 nM		20 nM	8.9 nM	2380 nM	33 nM	509 nM	3.4 nM	
LSHVKIPVVYRLVWD [Peptide 90.0020]	100 nM		469 nM	1340 nM		3570 nM		329 nM	525 nM	79 nM	22 nM	3950 nM	
MAIFGVNPTVAEGFK [Peptide 89.0081]	1200 nM		1560 nM		41 nM	1090 nM		35 nM	36 nM		426 nM	75 nM	
PEWIDRLTVLQHSFN [Peptide 89.0070]	203 nM	982 nM	4150 nM	> 20000 nM	2640 nM		> 20000 nM		79 nM	2610 nM	13 nM		
PRWLCAGALVLAGGF [Peptide 68.0083]	4600 nM			> 20000 nM	> 20000 nM	> 20000 nM		> 20000 nM					
SEIYIIEETTCTLVA [Peptide 90.0250]	> 20000 nM		> 20000 nM	> 20000 nM	> 20000 nM	> 20000 nM	> 20000 nM	399 nM	8080 nM		231 nM		
SLSLGFLFLLFFWLD [Peptide 68.0022]	1220 nM		> 20000 nM	> 20000 nM		> 20000 nM	> 20000 nM				> 20000 nM		> 20000 nM
VSFLSALKLFLKGVP [Peptide 89.0053]	82 nM	1450 nM	2120 nM		64 nM	290 nM				23 nM	23 nM	1570 nM	
